Reference: PubChem BioAssay AID2305 (GlaxoSmithKline (GSK), 2010)
Several values for one entry are separate records, joined by “and”; a condition that tells them apart may be missing. Identical values can stand only once.

System: P. falciparum 3D7 growth, pLDH absorbance
Test: blood-stage malaria parasite growth potency – strain 3D7, dose response (AID 2305)

Row | SMILES | IC50
1 | O=[N+]([O-])c1ccc(C2=NN(S(=O)(=O)c3c(Cl)cc(Cl)cc3Cl)CCCC2)cc1 | 130 nM
2 | C=CCn1c(SCc2c(C)noc2C)nc2scc(-c3cccs3)c2c1=O | 1100 nM
3 | Clc1ccc(NC(=NCCCCCCCN=C(Nc2ccc(Cl)cc2)Nc2ccc(Cl)cc2)Nc2ccc(Cl)cc2)cc1 | 320 nM
4 | Oc1ccc(CCNc2nc(NCCCOc3ccccc3-c3ccncc3)nc(N3CCNCC3)n2)cc1 | 1110 nM
5 | O=[N+]([O-])c1cccc(Nc2nccc(-c3cnn4ncccc34)n2)c1 | 180 nM
6 | Cc1cc(N[C@@H](Cc2ccccc2)C(=O)NCc2cccs2)nc(NCCc2ccccc2)n1 | 790 nM
7 | COc1ccc(CNC2CCN(C)CC2)cc1-c1ccc(S(=O)(=O)NCC2CCCO2)s1 (configuration not stated) | 800 nM
8 | COc1c(C2CCN(CCCCNC(=O)c3ccc(-c4ccc(C(F)(F)F)cc4)c(C(=O)OC(C)C)c3)CC2)ccc2c1CCCC2 | 860 nM
9 | O=C1c2ccccc2CCC1CCN1CC=C(c2c[nH]c3ccccc23)CC1 (configuration not stated) | 700 nM
10 | Clc1ccc(OCCC2CCN(CCCCCCCN3CCC(CCOc4ccc(Cl)c(Cl)c4)CC3)CC2)cc1Cl | 620 nM
11 | O=C(/C=C/c1cc(C(F)(F)F)ccc1F)N1CCC(CN2CCC(c3c[nH]c4ccccc34)CC2)CC1 | 990 nM
12 | Cn1nc(-c2ccc(NC(=O)Nc3cc(C(F)(F)F)ccc3F)c(F)c2)c2cnc(NCCCn3ccnc3)nc21 | 740 nM
13 | Nc1nc(N)c2c(n1)CCC(c1ccccc1)C2 (configuration not stated) | 1010 nM
14 | COC(=O)c1ccc2nc(-c3ccc(C(=O)NC4CCN(Cc5ccccc5)CC4)s3)[nH]c2c1 | 690 nM
15 | COc1cc2c(cc1NC(=O)CN1CCN(C(=O)c3ccco3)CC1)oc1ccccc12 | 420 nM
16 | CN=C(N)c1ccc(NC(=O)Nc2ccc(C(N)=NC)cc2)cc1 | 580 nM
17 | CCOc1cc(C(=O)NCc2cccc(C(F)(F)F)c2)ccc1-c1nc2ccc(Cl)cc2[nH]1 | 980 nM
18 | Cc1cc(N2CCCC2)nc(Nc2ccc(NC(=O)C3CCCC3)cc2)n1 | 1110 nM
19 | CCOC(=O)c1c(C)n(C2CCCCC2)c2cc(Br)c(O)cc12 | 820 nM
20 | CC(Cc1ccc(NC(=O)c2ccc(CC(C)NCc3ccc(Cl)cc3)cc2)cc1)NCCc1cccc(Cl)c1 (configuration not stated) | 450 nM
21 | FC(F)(F)c1ccccc1OCc1cc(-c2ccncc2)c(COc2ccccc2C(F)(F)F)cc1C1=CCNCC1 | 890 nM
22 | FC(F)(F)c1ccc(NC(=S)NC2CCC(CN3CCC(c4c[nH]c5ccccc45)CC3)CC2)cc1 (configuration not stated) | 730 nM and 390 nM
23 | CC(=O)c1sc2ccccc2c1O | 880 nM
24 | CCc1ccc(S(=O)(=O)Nc2ccc(CCN(C)C3CCN(C)CC3)cc2)cc1 | 1060 nM
25 | CN1CCC(N2CCC(Oc3cccc(C(=O)NCCCC4CCCC4)c3)CC2)CC1 | 840 nM

Row | SMILES | IC50
26 | Cc1cc(CNC(=O)c2ccc(-c3ccc(-c4nc5ccc(C(F)(F)F)cc5[nH]4)s3)cc2)on1 | 730 nM
27 | NC1=NC(c2ccccc2)N(c2ccccc2)C(N)=N1 (configuration not stated) | 290 nM
28 | COc1ccc(CNCc2ccc(F)cc2)cc1-c1ccc(S(=O)(=O)NCCN2CCCC2)c(C)c1 | 730 nM
29 | c1ccc(CN2CCN(CCCCNc3c4ccccc4nc4ccccc34)CC2)cc1 | 120 nM
30 | COc1ccc2nc(N)nc(C)c2c1 | 930 nM
31 | N#Cc1cccc(CNC(=O)c2cccc(Nc3ccnc4ccc(F)cc34)c2)c1 | 990 nM
32 | COc1cc(NC(=O)/C=C/c2cc(F)cc(F)c2F)cc(OCCN2CCC(O)(c3ccccc3)CC2)c1 | 170 nM
33 | CN(C)Cc1cccc(-c2ccc(NC(=O)c3ccc4c(=O)n(Cc5ccoc5)cnc4c3)cc2)c1 | 770 nM
34 | Cc1nc(N)nc(N)c1-c1cc(Cl)c(Cl)c(Cl)c1 | 830 nM
35 | Cc1c[nH]c2cc(/C=C/C(=O)NC3CCC(CCN4CCc5ccc(C#N)cc5CC4)CC3)ccc12 (configuration not stated) | 800 nM
36 | CC(C)c1ccc(NC(=O)c2ccc(C(=O)NC3CCN(CC4CCCCC4)C3)cc2)cc1 (configuration not stated) | 790 nM
37 | Cc1ccc(C(NC(=O)c2ccccc2)c2ccc3cccnc3c2O)cc1 (configuration not stated) | 960 nM
38 | CCNc1cc(C(=O)N[C@@H](Cc2ccccc2)[C@H](O)CN[C@H]2C[C@@H]3CC[C@H]2C3)cc(N2CCCCS2(=O)=O)c1 | 240 nM
39 | Cc1cccc2[nH]c(C3CCN(CC4CCN(C(=O)/C=C/c5ccc(Cl)c(Cl)c5)CC4)CC3)nc12 | 480 nM
40 | CC(C)CSc1cc(C(=O)Nc2cc(Cl)ccc2O)ccn1 | 670 nM
41 | Cc1ccccc1CCNC(=O)c1cnc(N2CCN(c3ccncc3)CC2)c(Cl)c1 | 1060 nM
42 | CCCCCc1cc(OCCN(C)C)cc2c1C(=O)CC(C)(C)O2 | 100 nM
43 | Cn1cc(C(=O)Nc2cccc(-c3cccc(-c4nc5ccccc5[nH]4)c3)c2)n(C)c1=O | 710 nM
44 | CC(C)(CNC(=O)[C@@H]1CCCN(CCOc2ccc(F)c(F)c2)C1)c1nc(-c2ccc(Cl)c(O)c2)c(-c2ccncc2)[nH]1 | 720 nM
45 | COc1ccc(-c2ccc(NC(=O)c3ccccc3)cc2)cc1CN1CCCN(C)CC1 | 910 nM
46 | CN1CCN(c2ccc(Cl)cc2NC(=O)C2COc3ccccc3O2)CC1 (configuration not stated) | 810 nM
47 | CC(CC(=O)NCC1(c2ccc(F)cc2Cl)CCOCC1)C(=O)c1ccc(Cl)cc1 (configuration not stated) | 860 nM
48 | COc1ccc2nccc([C@@H](O)CN3CCC(NCCc4c[nH]c5ccccc45)CC3)c2c1 | 210 nM
49 | NC1=NC(=O)C(=Cc2cn(-c3ccccc3)nc2-c2cccc(S(=O)(=O)N3CCCC3)c2)S1 | 1140 nM
50 | Cc1ccc(C)c(S(=O)(=O)NCC2CCN(Cc3ccc(O)cc3)CC2)c1 | 980 nM

Row | SMILES | IC50
51 | CCNc1cc(C(=O)N[C@@H](Cc2ccccc2)[C@H](O)CNC2CCC(C)(C)CC2)cc(N2CCCCS2(=O)=O)c1 | 650 nM
52 | CCN(CC)CCN(CCCc1ccc(-c2ccc(C(F)(F)F)cc2)cc1)C(=O)Cn1c(CCc2cccc(F)c2F)nc(=O)c2ccccc21 | 770 nM
53 | Cc1cc(Nc2cccc(C#N)c2)nc(Nc2ccccc2C)n1 | 860 nM
54 | Cc1ccc(NC(=O)c2ccnc(N3CCN(c4ccncc4)CC3)c2)cc1F | 870 nM
55 | Cc1cc(OCCCN=C(N)c2ccc3ccccc3c2)c(C(C)C)cc1Cl | 970 nM
56 | CC(C)N(Cc1ccc(-c2ccc(C(F)(F)F)cc2)cc1)C(=O)Cn1c(CCc2cccc(F)c2F)cc(=O)c2ccc(CCCN3CCCCC3)cc21 | 740 nM
57 | CC(=O)N(C)c1cccc(C(=O)Nc2cccc(-c3cccc(-c4nc5c(C)cccc5[nH]4)c3)c2)c1 | 620 nM
58 | CO/C(=C\C=C\c1cc2cc(Cl)c(Cl)cc2[nH]1)C(=O)NCCCN1CCN(c2cccc(OCC(=O)Nc3cccc(C(=O)c4ccccc4)c3)c2)CC1 | 690 nM
59 | COc1cccc(NC(=O)Nc2ccc(Nc3nc(C)cc(N(C)C)n3)cc2)c1 | 170 nM
60 | COc1ccc(CN(C)CCOc2ccc(NC(=O)c3cccc4c(=O)cc(-c5ccccc5)[nH]c34)cc2)cc1OC | 920 nM
61 | C[C@@H](COc1ccccc1)NCC(O)c1ccc([N+](=O)[O-])c(OCc2ccccc2)c1 (some centres not stated) | 990 nM
62 | O=C(C=Cc1ccc(Cl)c(Cl)c1)NCCCCCN1CCC(CCNC(=O)C(c2ccccc2)c2ccccc2)CC1 | 1010 nM
63 | CCCn1c(Sc2ccc(C#N)c([N+](=O)[O-])c2)nnc1-c1ccc(OC)cc1 | 860 nM
64 | CCCCCn1c(Sc2ccc(C#N)c([N+](=O)[O-])c2)nnc1-c1ccc(Cl)cc1 | 1080 nM
65 | CN(C)c1ccc(CN2CCC(NC(=O)c3ccc(-c4cccc(F)c4)s3)CC2)cc1 | 1490 nM
66 | CCCCCC(C)C(C)c1cc(O)c2c(c1)OC(C)(C)CC2(O)c1ccccn1 (configuration not stated) | 740 nM
67 | Cc1nc(N)nc(N)c1OCc1cccc2c1ccc1ccccc12 | 100 nM
68 | Nc1nc(N)c2c(ccc3c2cnn3S(=O)(=O)N2CCCC2)n1 | 20 nM
69 | COc1ccc2nccc(N3CCN(CCNCc4ccc5c(n4)NC(=O)CS5)CC3)c2n1 | 840 nM
70 | ON=C1CCc2cc(-c3cc(-c4ccc(OC5CCNCC5)cc4)oc3-c3ccncc3)ccc21 | 160 nM
71 | O=C(c1ccccc1)N1CCC(CN2CCOC(c3ccccc3)(c3ccccc3)C2)CC1 | 500 nM
72 | CO/C(=C\C=C\c1cc2cc(Cl)c(Cl)cc2[nH]1)C(=O)N[C@H]1CN2CCC1CC2 | 1210 nM
73 | COc1cc(NC(=O)c2ccc(-c3ccccc3)cc2)ccc1OCCCN1CCC(c2ccccc2)CC1 | 750 nM
74 | COc1cccc(CNC(=O)c2cccc(-c3ccc(CN4CCC(N5CCCC5)CC4)cc3)n2)c1 | 1790 nM
75 | NC1=NC(c2ccccc2)(c2ccccc2)C(=O)N1C1CCCCC1 | 660 nM

Row | SMILES | IC50
76 | O=C(NCCCCN1CCC(O)(c2ccc(Cl)cc2)CC1)c1ccc(Br)cc1 | 1250 nM
77 | CCN1CCN(c2cc(C)c3cc(NC(=O)c4ccc([N+](=O)[O-])c(C)c4)ccc3n2)CC1 | 650 nM
78 | FC(F)(F)c1cccc(CNCCCCCNCc2ccc(Cl)cc2)c1 | 1030 nM
79 | Cc1ccc(NC(=O)Nc2cccc(Cl)c2)cc1-c1ccc(C(=O)Nc2ccncc2)cc1 | 740 nM
80 | COc1ccc(CNc2ccnc(-n3cnc4cc(C)c(C)cc43)n2)cc1Cl | 270 nM
81 | COc1cc(NC(=O)c2sc(-c3ccc(Cl)cc3)cc2Cl)ccc1OCCN1CCCC1 | 980 nM
82 | Cc1nc2nc(N)nc(N)c2c(C)c1Cc1ccccc1 | 250 nM
83 | CC(=O)Nc1ccc2[nH]cc(C3CCN(CC4CCC(NC(=O)/C=C/c5ccc(Cl)c(Cl)c5)CC4)CC3)c2n1 (configuration not stated) | 260 nM
84 | COc1ccc(NC(=O)c2ccc(Br)c(C)c2)cc1N1CCN(Cc2ccccc2)CC1 | 920 nM
85 | NC(=O)c1ccc(NCC(=O)Nc2cccc(-c3cccc(-c4nc5ccc(F)cc5[nH]4)c3)c2)cc1 | 870 nM
86 | Cc1ccccc1Cc1cccc(/N=C(\N)Nc2ccc(Cl)cc2)n1 | 680 nM
87 | COC(=O)c1ccc(C[C@@H](C)NC[C@H](O)c2cccc(OCc3ccccc3)c2)cc1 | 1160 nM
88 | COc1cc2nc(N3CCC(CNC(=O)c4ccc(NC(=O)c5ccc(Cl)cc5)cc4)CC3)nc(N)c2cc1OC | 260 nM
89 | O=C(C=Cc1ccc([N+](=O)[O-])cc1)NC1CCC(CN2CCC(c3c[nH]c4ccccc34)CC2)CC1 (configuration not stated) | 790 nM and 840 nM
90 | CCCNC(=O)C1CCN(C(c2ccccc2)c2ccc(Cl)c(Cl)c2)CC1 (configuration not stated) | 710 nM
91 | CCCCCCNC(=O)C1Cc2c([nH]c3cc(Cl)ccc23)C2(CCN(Cc3ccccc3)CC2)N1 (configuration not stated) | 900 nM
92 | CCc1ccc(CC(C)NCC(O)c2ccccc2)cc1 (configuration not stated) | 890 nM
93 | O=C(Nc1cccc(F)c1)NC1CCN(c2ccnc3cc(Cl)ccc23)C1 (configuration not stated) | 190 nM
94 | Nc1cccc(CNCc2cccc(-c3ccc(-c4nc5ccccc5[nH]4)cc3)c2)c1 | 420 nM
95 | Cc1cc(C)c(NC(=O)N2CCCN(CCCCCNC(=O)/C=C/c3ccc(Cl)c(Cl)c3)CC2)c(C)c1 | 970 nM
96 | FC(F)(F)c1cccnc1N1CCC(Nc2nc3ccc(Cl)cc3[nH]2)CC1 | 650 nM
97 | CCOc1cc2ncnc(Nc3ccc(OCc4c(F)cccc4F)c(OC)c3)c2cc1OCC | 820 nM
